Measurements taken from EP2518159A1, “Method for determining the neurodevelopmental toxicity of a compound in vitro” (priority 2011, dated 2012).

Columns and labels:
Settings in all cases: ES-D3 neural differentiation culture, exposed from day 3, harvested on day 4 (24h exposure); relative to DMSO control (1 = unchanged); 25 nM MeHg, 100 µM cyproconazole, 1000 µM valproic acid, 25 µM hexaconazole
[1] = system: Shisa6; assay: Gene expression change of Shisa6 in neural differentiation culture of embryonic stem cells (Affymetrix microarray)
Protocol: (§1) Murine embryonic stem cells (ESC) (ES-D3, ATCC, Rockville, MD, USA) were routinely subcultured every 2-3 days and grown as a monolayer in CM supplemented with leukemia inhibiting factor (LIF) (Chemicon, Temecula, CA, USA) at a final concentration of 1000 units/ml. The cells were maintained in a humidified atmosphere at 37°C and 5% CO2.
(§2) Differentiation of ESC into the neural lineage was carried out as described earlier (Theunissen et al., 2010). In brief, stem cell suspensions (3.75×10^4 cells/ml) were placed on ice before the initiation of the culture. Drops (20µl) containing 750 cells in CM were placed onto the inner side of the lid of a 90 cm Petri dish filled with phosphate-buffered saline (PBS) (Gibco BRL, Gaithersburg, MD) and incubated at 37 °C, 90% relative humidity and 5% CO2. After 3 days of hanging drop culture embryoid bodies (EB) had formed and were subsequently transferred to 60mm bacterial Petri dishes (Greiner Bio-one, Frickenhausen, Germany) containing CM supplemented with 0.5 µM retinoic acid (RA). On day 5, EB were plated on laminin (Roche, Basel, Switzerland) coated dishes (Corning Incorporated, Corning, NY, USA) in LS medium supplemented with 2.5 ug/ml fibronectin (Invitrogen, Carlsbad, CA, USA). One day later, on day 6, the LS medium was replaced by ITS medium. On day 7, EB were washed with phosphate buffered saline (PBS) (Gibco BRL, Gaithersburg, MD, USA) and incubated in cell dissociation buffer (Gibco BRL, Gaithersburg, MD, USA) for 3 minutes. Then EB were carefully detached from each Petri dish without dissociating the EBs and the entire content was replated on poly-L-ornithine (Sigma-Aldrich, Zwijndrecht, The Netherlands) and laminin coated dish in N2 medium supplemented with 10 ng/ml basic fibroblast growth factor (bFGF) (Srtathmann-Biotec AG, Englewood, CO, USA). The N2 medium supplemented with bFGF was replaced every other day for 7 days.
(§3) Control differentiation cultures were harvested on culture days 3, 4 and 5 (8 replicates per group). Differentiation cultures were exposed to the 3 neurodevelopmental toxicants and controls from day 3 onwards and harvested on day 4 (24h exposure) (8 replicates per group). Cells (-40-50 EB/sample) were directly collected in RNA Protect (Qiagen Benelux, Venlo, The Netherlands) to stabilize RNA, and total RNA was purified using the Qiagen RNEasy Plus Mini Kit (Qiagen Benelux, Venlo, The Netherlands) following the manufacturer's instructions. RNA quantity was determined using the NanoDrop Spectophotometer (Isogen Lifescience, de Meern, The Netherlands). RNA integrity was assessed on the 2100 Bioanalyzer (Agilent, Santa Clara, CA, USA) using the RNA 6000 Nano Chip Kit (Agilent, Santa Clara, CA, USA), and good quality RNA was used for gene expression analysis (RNA integrity number (RIN) > 8.0).

[2] = system: Car4; assay: Gene expression change of Car4 in neural differentiation culture of embryonic stem cells (Affymetrix microarray)
Protocol: as §1, §2, §3

[3] = system: Emilin2; assay: Gene expression change of Emilin2 in neural differentiation culture of embryonic stem cells (Affymetrix microarray)
Protocol: as §1, §2, §3

SMILES: CCCC(CCC)C(=O)[O-].[Na+] [VPA, Valproic acid sodium salt]
- Ratio, gene expression change Shisa6 [1]: 0.752
- Ratio, gene expression change Car4 [2]: 1.373
- Ratio, gene expression change Emilin2 [3]: 2.063

SMILES: CCCCC(O)(Cn1cncn1)c1ccc(Cl)cc1Cl (stereo not drawn) [Hex, Hexaconazole]
- Ratio, gene expression change Shisa6 [1]: 1.096
- Ratio, gene expression change Car4 [2]: 0.936
- Ratio, gene expression change Emilin2 [3]: 1.185

SMILES: [CH3][Hg][Cl] [MeHg, Methylmercury chloride]
- Ratio, gene expression change Shisa6 [1]: 1.380
- Ratio, gene expression change Car4 [2]: 0.686
- Ratio, gene expression change Emilin2 [3]: 1.351

SMILES: CC(C1CC1)C(O)(Cn1cncn1)c1ccc(Cl)cc1 (stereo not drawn) [Cyp, Cyproconazole]
- Ratio, gene expression change Shisa6 [1]: 1.228
- Ratio, gene expression change Car4 [2]: 0.777
- Ratio, gene expression change Emilin2 [3]: 1.270
